According to ChEMBL document CHEMBL3885881, “DrugMatrix”:

Species on record: Rattus norvegicus
Assay: DrugMatrix - Regimen: Daily Repeat
Assay type: toxicity, organism-based, Sprague-Dawley
Set-up: regimen Daily Repeat, gender Male, age 6-8 weeks
Conditions: in vivo, po, route oral GAVAGE, vehicle 100 % WATER; for BASOPHIL / EOSINOPHIL / ERYTHROCYTE COUNT / HEMATOCRIT / HEMOGLOBIN / LEUKOCYTE COUNT / LYMPHOCYTE / MEAN CORPUSCULAR HEMOGLOBIN / MEAN CORPUSCULAR HEMOGLOBIN CONCENTRATION / MEAN CORPUSCULAR VOLUME / MONOCYTE / NEUTROPHIL / PLATELET COUNT: tissue Blood; for ALANINE AMINOTRANSFERASE / ALBUMIN / ALKALINE PHOSPHATASE / ASPARTATE AMINOTRANSFERASE / BLOOD UREA NITROGEN / CHLORIDE / CHOLESTEROL / CREATINE PHOSPHOKINASE / CREATININE / GLUCOSE / PHOSPHORUS / POTASSIUM / SODIUM / TOTAL BILIRUBIN / TOTAL PROTEIN: tissue Plasma
[1] = 0 mg/kg, 72 h, dose level Control, time 3 day
[2] = 0 mg/kg, 120 h, dose level Control, time 5 day
[3] = 53.5 mg/kg, 72 h, dose level Low, time 3 day

## CN1C(=O)OC(C)(C)C1=O [TRIMETHADIONE]
[1]
  BASOPHIL: 0%
  EOSINOPHIL: 0.5%
  ERYTHROCYTE COUNT: 5.8 x10E6/uL
  HEMATOCRIT: 35.07%
  HEMOGLOBIN: 14.12 G/DL
  LEUKOCYTE COUNT: 13.7 x10E3/uL
  LYMPHOCYTE: 82.33%
  MEAN CORPUSCULAR HEMOGLOBIN: 24.38 pg
  MEAN CORPUSCULAR HEMOGLOBIN CONCENTRATION: 40.28 G/DL
  MEAN CORPUSCULAR VOLUME: 60.52 fL
  MONOCYTE: 2.67%
  NEUTROPHIL: 14.5%
  PLATELET COUNT: 911.5 x10E3/uL
  ALANINE AMINOTRANSFERASE: 36.83 u/L
  ALBUMIN: 3.75 G/DL
  ALKALINE PHOSPHATASE: 399.83 u/L
  ASPARTATE AMINOTRANSFERASE: 66 u/L
  BLOOD UREA NITROGEN: 14.67 mg/dL
  CHLORIDE: 101.67 MEQ/L
  CHOLESTEROL: 66.33 mg/dL
  CREATINE PHOSPHOKINASE: 139.5 u/L
  CREATININE: 0.92 mg/dL
  GLUCOSE: 175 mg/dL
  PHOSPHORUS: 11.42 mg/dL
  POTASSIUM: 7.03 MEQ/L
  SODIUM: 148.5 MEQ/L
  TOTAL BILIRUBIN: 1.13 mg/dL
  TOTAL PROTEIN: 6.87 G/DL
[2]
  BASOPHIL: 0%
  EOSINOPHIL: 0.2%
  ERYTHROCYTE COUNT: 6.02 x10E6/uL
  HEMATOCRIT: 36.48%
  HEMOGLOBIN: 14.38 G/DL
  LEUKOCYTE COUNT: 12.34 x10E3/uL
  LYMPHOCYTE: 83%
  MEAN CORPUSCULAR HEMOGLOBIN: 23.92 pg
  MEAN CORPUSCULAR HEMOGLOBIN CONCENTRATION: 39.44 G/DL
  MEAN CORPUSCULAR VOLUME: 60.66 fL
  MONOCYTE: 3%
  NEUTROPHIL: 13.8%
  PLATELET COUNT: 1190.6 x10E3/uL
  ALANINE AMINOTRANSFERASE: 43 u/L
  ALBUMIN: 3.73 G/DL
  ALKALINE PHOSPHATASE: 393 u/L
  ASPARTATE AMINOTRANSFERASE: 62.33 u/L
  BLOOD UREA NITROGEN: 16.33 mg/dL
  CHLORIDE: 101.67 MEQ/L
  CHOLESTEROL: 65.5 mg/dL
  CREATINE PHOSPHOKINASE: 130.67 u/L
  CREATININE: 0.58 mg/dL
  GLUCOSE: 180.67 mg/dL
  PHOSPHORUS: 11.28 mg/dL
  POTASSIUM: 7.05 MEQ/L
  SODIUM: 148.17 MEQ/L
  TOTAL BILIRUBIN: 0.72 mg/dL
  TOTAL PROTEIN: 6.83 G/DL
[3]
  BASOPHIL: 0%
  EOSINOPHIL: 0.5%
  ERYTHROCYTE COUNT: 6.33 x10E6/uL
  HEMATOCRIT: 38.05%
  HEMOGLOBIN: 15.05 G/DL
  LEUKOCYTE COUNT: 12.85 x10E3/uL
  LYMPHOCYTE: 83.5%
  MEAN CORPUSCULAR HEMOGLOBIN: 23.8 pg
  MEAN CORPUSCULAR HEMOGLOBIN CONCENTRATION: 39.55 G/DL
  MEAN CORPUSCULAR VOLUME: 60.15 fL
  MONOCYTE: 3.5%
  NEUTROPHIL: 12.5%
  PLATELET COUNT: 1304.5 x10E3/uL
  ALANINE AMINOTRANSFERASE: 36.5 u/L
  ALBUMIN: 3.7 G/DL
  ALKALINE PHOSPHATASE: 313 u/L
  ASPARTATE AMINOTRANSFERASE: 61.5 u/L
  BLOOD UREA NITROGEN: 12 mg/dL
  CHLORIDE: 101 MEQ/L
  CHOLESTEROL: 59 mg/dL
  CREATINE PHOSPHOKINASE: 136 u/L
  CREATININE: 0.55 mg/dL
  GLUCOSE: 210.5 mg/dL
  PHOSPHORUS: 13 mg/dL
  POTASSIUM: 6.85 MEQ/L
  SODIUM: 151 MEQ/L
  TOTAL BILIRUBIN: 0.35 mg/dL
